In one test the test system is Escherichia coli J96. As to the kind of experiment: Selectivity ratio of Kd for Escherichia coli J96 FimH lectin domain Y48A mutant to Kd for Escherichia coli J96 wild type FimH lectin domain.
Test [1] can be described thus: Binding affinity to Escherichia coli FimH lectin domain.
The target of test [2] is Type 1 fimbrin D-mannose specific adhesin (Escherichia coli K-12) (UniProt P08191). As to the kind of experiment: Binding affinity to Escherichia coli J96 FimH lectin domain expressed in Escherichia coli C43 (DE3) by SAXS analysis.
Chain of Type 1 fimbrin D-mannose specific adhesin (Escherichia coli K-12) (P08191 whole entry, the tested form may be a part): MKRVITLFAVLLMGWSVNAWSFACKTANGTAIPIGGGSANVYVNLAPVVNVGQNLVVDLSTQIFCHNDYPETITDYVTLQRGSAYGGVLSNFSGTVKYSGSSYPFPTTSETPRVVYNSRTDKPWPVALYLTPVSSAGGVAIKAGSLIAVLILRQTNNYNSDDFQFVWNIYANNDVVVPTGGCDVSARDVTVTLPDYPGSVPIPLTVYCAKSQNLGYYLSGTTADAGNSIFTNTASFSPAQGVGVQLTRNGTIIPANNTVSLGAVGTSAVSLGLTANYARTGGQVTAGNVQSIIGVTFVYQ
The target is the same in test [3]. As to the kind of experiment: Binding affinity to Escherichia coli J96 FimH lectin domain expressed in Escherichia coli C43 (DE3) by NMR analysis.
Test [4] addresses Type 1 fimbrin D-mannose specific adhesin (Escherichia coli K-12, UniProt P08191). As to the kind of experiment: Binding affinity to Escherichia coli J96 wild type FimH lectin domain expressed in Escherichia coli C43 (DE3) by direct ITC analysis. For orientation: Isothermal titration calorimetry measures the heat released or taken up as one component is titrated into another.
Test [5] is described as follows: Binding affinity to Escherichia coli J96 FimH lectin domain Y48A mutant expressed in Escherichia coli C43 (DE3) by direct ITC analysis.

The source made the active and inactive calls. The calls are words filed in the database; no cut-off is given here.

Chain of Type 1 fimbrin D-mannose specific adhesin (P08191 whole entry, the tested form may be a part): as above

Regarding `CCCCCCCO[C@H]1O[C@H](CO)[C@@H](O)[C@H](O)[C@@H]1O`, the Selectivity ratio in the test on Escherichia coli J96 is 5. Moreover, the Kd (usually a measure of binding affinity in units of concentration) in test [1] amounted to 7 nM; in test [4], 17.1 nM; in test [5] it was 94.3 nM. Further, the outcome in test [2] and in test [3] was Active.

The values above are taken from ChEMBL document CHEMBL3124783, “Study of the structural and dynamic effects in the FimH adhesin upon α-d-heptyl mannose binding” (J Med Chem, 2014).
